Data reported in US7572454B2, “T helper cell epitopes” (priority 1999, dated 2009).
Marks after values point to notes of the source that are not given here. Ends that are not written are not given here.

Legend:
LHRH [1] = experiment: Trial K9-8: antibody response to LHRH by ELISA; format: in vivo, dog; conditions: Trial K9-8; T-cell-LHRH constructs named by their T-cell epitope
Description: A total of 35 dogs mixed sex were used in this trial. All had been previously vaccinated with a live CDV vaccine but had not been vaccinated against LHRH.
The T-Helper epitopes were linked to a truncated form of LHRH, containing amino acids 2 to 10 of the native 10 amino acid sequence, as shown below:
All vaccines were formulated as for Example 2, ie each 1 mL dose of vaccine contained 40nmoles of peptide, 150 μg Iscomatrix™, and thiomersal as preservative.
Where dogs were vaccinated with a pool of peptides, the concentration of each peptide was adjusted to give equal concentrations and a total amount of 40 nmoles of LHRH epitope per 1 mL dose.
All dogs were vaccinated with a 1 mL dose, delivered in the scruff of the neck. Vaccinations were given at 0 and 4 weeks and venous blood samples were obtained at intervals during the trial.
Effective T-cell help was determined by measuring the antibody response to LHRH by ELISA. Biological effectiveness of the peptide based vaccine was determined by measuring the levels of progesterone in female dogs and testosterone in male dogs.

LHRH [2] = experiment: Trial in BALB/c mice: antibody response to LHRH by ELISA; format: in vivo; conditions: for antibody titres to LHRH: BALB/c mice
Description: The canine vaccines with CDV-F derived Th-epitopes and LHRH used in Example 3 were also used to immunise BALB/c mice to investigate if the Th-epitopes would be functional in a different animal species.
All vaccines were formulated as for Example 3 except that they were diluted further so that 100 μl doses contained 2.7 nmoles of peptide and 10 μg of Iscomatrix™ and thiomersol as preservative.
Mice were vaccinated with 100 μl of the vaccine at the base of tail. Vaccinations were given at 0 and 4 weeks and animals bled at intervals after each vaccination from the retro-orbital plexus. Effective T-cell help was determined by measuring the antibody response to LHRH by ELISA.

[3] = test system: PBMCs from dogs immunised with CDV; experiment: T-cell proliferation after in vitro stimulation of PBMC with peptide pools, tested with autologous APCs and single peptides; format: cell-based, dog; conditions: for reaction with peripheral blood mononuclear cells: dogs of various breeds immunised with CDV
Description: An alternate strategy was used to increase the precursor frequency of specific T cells recognising the CDV peptides. Fresh PBMCs obtained from these hyperimmunised dogs were subjected to stimulation in vitro with pools of all 94 peptides for 30 minutes at 37° C. The cells were then washed to remove any excess peptides and cultured for 7 days. This population of T cells was then tested with autologous APCs with every single peptide as the antigen.
To confirm this observation, the same four dogs were bled again, five weeks after receiving the dose of killed virus. The PBMCs were stimulated in vitro with pools of either all 94 peptides or peptides 21-40 (because most of the activity was in this region) and after 7 days of culture the stimulated T cells were tested against individual peptides. Significant stimulatory indices were obtained with all peptides, confirming the above results. Four more dogs which received only one dose of 3 in 1 vaccine were tested using the in vitro stimulation method and all four dogs responded to the majority of peptides shown in Table 2.
Once again the same peptides and one additional peptide P32 were tested on cells from additional dogs.

[4] = Table 1, Beagle Foxhound (Dog #18), hyperimmunised, PBMC stimulated with pool of all 94 peptides, 7 days culture
[5] = Table 1, Beagle Foxhound (Dog #19)
[6] = Table 1, Beagle Foxhound (Dog #20)
[7] = Table 1, Beagle Foxhound (Dog #21)
[8] = Table 2, Beagle Foxhound (Dog #71), one dose of 3 in 1 vaccine
[9] = Table 3, Kelpie Foxhound (Dog #125)

Substance	Stimulatory index ([3]; Table 5, Border Collie)	Stimulatory index ([3]; Table 5, Fox Terrier)	Stimulatory index ([3]; Table 5, Grey hound)	Stimulatory index ([3]; Table 5, Kelpie Pointer)	Stimulatory index ([3]; Table 5, Poodle Shitzu)	Stimulatory index ([3]; Table 5, Terrier Cross)	Stimulatory index [3, 4]	Stimulatory index [3, 5]	Stimulatory index [3, 6]	Stimulatory index [3, 7]	further results
P8-LHRH: T-helper epitope P8 linked to truncated LHRH, amino acids 2 to 10 (SEQ ID NO: 29) (HWSYGLRPG; not fully specified (N-terminus); ends and bridges not checked; also: linked to T-helper epitope P8; listed as Homo sapiens) [Peptide P8-LHRH]											antibody responses to LHRH (LHRH [1]): Low to undetectable antibody responses; Anti-LHRH antibody titre (LHRH [2]; 2 weeks post second vaccination, Mouse 1): <100; Anti-LHRH antibody titre (LHRH [2]; 2 weeks post second vaccination, Mouse 2): <100; Anti-LHRH antibody titre (LHRH [2]; 2 weeks post second vaccination, Mouse 3): <100; Anti-LHRH antibody titre (LHRH [2]; 2 weeks post second vaccination, Mouse 4): <100; Anti-LHRH antibody titre (LHRH [2]; 4 weeks post first vaccination, Mouse 1, 2.7 nmoles peptide, base of tail): <100; Anti-LHRH antibody titre (LHRH [2]; 4 weeks post first vaccination, Mouse 2): <100; Anti-LHRH antibody titre (LHRH [2]; 4 weeks post first vaccination, Mouse 3): <100; Anti-LHRH antibody titre (LHRH [2]; 4 weeks post first vaccination, Mouse 4): <100
PRTSDRPVSYTMNRTRS (canine distemper virus; synthetic peptide from canine distemper virus fusion protein (CDV-F) designated peptide P8)	2	<2	2	2.8	100	<2					Stimulatory index ([3]; Table 2, Beagle Foxhound (Dog #70), one dose of 3 in 1 vaccine): 2.2; antibody titres to LHRH (LHRH [2]): undetectable levels
PRYIATNGYLISNFDES (canine distemper virus; synthetic peptide from canine distemper virus fusion protein (CDV-F) designated peptide P62)	<2	<2	<2	<2	24	<2	<2	51	5.6	4.2	Stimulatory index [3, 8]: 3; Stimulatory index [3, 9]: 2.4; antibody responses to LHRH (LHRH [1]): Strong antibody responses; antibody titres to LHRH (LHRH [2]): undetectable levels
QPSTELEETRTSRARHS (canine distemper virus; synthetic peptide from canine distemper virus fusion protein (CDV-F) designated peptide P4)	2	<2	2	3.5	44	2	4.9	<2	3.3	4.6	
QSLRTSLEQSNKAIEEI (canine distemper virus; synthetic peptide from canine distemper virus fusion protein (CDV-F) designated peptide P38)							2.8	6.7	3.6	4.2	Stimulatory index [3, 9]: 2.2
RHSTTSAQRSTHYDPRT (canine distemper virus; synthetic peptide from canine distemper virus fusion protein (CDV-F) designated peptide P6)	2	<2	<2	<2	38	<2	2.5	<2	4	5.1	
SGRRQRRFAGVVLAGVA (canine distemper virus; synthetic peptide from canine distemper virus fusion protein (CDV-F) designated peptide P32)	<2	<2	2	<2	<2	<2					
SHQYLVIKLIPNASLIE (canine distemper virus; synthetic peptide from canine distemper virus fusion protein (CDV-F) designated peptide P24)							5.8	9.9	2.8	29	Stimulatory index [3, 8]: 3.2; Stimulatory index ([3]; Table 2, Beagle Foxhound (Dog #72), one dose of 3 in 1 vaccine): 2.2
SPDKLLTFIASDTCPLV (canine distemper virus; synthetic peptide from canine distemper virus fusion protein (CDV-F) designated peptide P75)	<2	<2	<2	<2	10	<2					Stimulatory index ([3]; Table 4, Beagle Foxhound #18): 2.5; Stimulatory index ([3]; Table 4, Beagle Foxhound #21): 7.2; Stimulatory index ([3]; Table 4, Poodle Shitzu): 10; reaction with peripheral blood mononuclear cells [3]: react strongly; antibody responses to LHRH (LHRH [1]): Strong antibody responses; antibody titres to LHRH (LHRH [2]): low antibody titres
SSKTQTHTQQDRPPQPS (canine distemper virus; synthetic peptide from canine distemper virus fusion protein (CDV-F) designated peptide P2)	2	<2	<2	2.6	140	<2	2*	<2	8	3.9	antibody responses to LHRH (LHRH [1]): Low to undetectable antibody responses; antibody titres to LHRH (LHRH [2]): undetectable levels
TELLSIFGPSLRDPISA (canine distemper virus; synthetic peptide from canine distemper virus fusion protein (CDV-F) designated peptide P47)							3.3	85.7	2.9	1.9	Stimulatory index [3, 9]: 2.7
TRSRKQTSHRLKNIPVH (canine distemper virus; synthetic peptide from canine distemper virus fusion protein (CDV-F) designated peptide P10)	3	2.2	2	2.4	50	2.1	2.3	<2	3.2	9.1	
TSTIINQSPDKLLTFIA (canine distemper virus; synthetic peptide from canine distemper virus fusion protein (CDV-F) designated peptide P74)	<2	<2	<2	<2	4	<2					Stimulatory index ([3]; Table 4, Beagle Foxhound #20): 1.7; Stimulatory index ([3]; Table 4, Beagle Foxhound #21): 6.0; Stimulatory index ([3]; Table 4, Poodle Shitzu): 4.0; reaction with peripheral blood mononuclear cells [3]: react strongly
YKIMTRPSHQYLVIKLI (canine distemper virus; synthetic peptide from canine distemper virus fusion protein (CDV-F) designated peptide P23)											Stimulatory index [3, 9]: 3.2
